Measurements: patent US11717508B2, “Compounds, compositions, and methods for inhibiting bacterial growth” (priority 2016, dated 2023)
Several values for one entry are separate records, joined by “and”; a condition that tells them apart may be missing. Equal entries are not always repeated. Where two headings read alike, the source gives them in different places.

Legend:
[1] = test system: CDC1551(ΔdosR) mutant; type: cell-based; conditions: for log2 Fold change: DosR mutant, HC101A vs DMSO; for Counts per million (CPM): DosR mutant treated with HC101A, replicates 1, 2
[2] = test system: DosRST regulon; type: cell-based; conditions: 40 μM, 6 days
[3] = target: DosT (Mycobacterium tuberculosis, UniProt P9WGK1, G115L); type: biochemical
[4] = test system: DosS; type: biochemical, Mycobacterium tuberculosis
[5] = test system: DosR-regulated genes (dosR, hspX and tgs1); type: cell-based, Mycobacterium tuberculosis

C[C@@H]1CC[C@H]2[C@@H](C)C(=O)O[C@@H]3O[C@]4(C)CC[C@@H]1[C@]32OO4 [HC101A, artemisinin, reference compound]
downregulated genes in CDC1551(ΔdosR) mutant treated with compound ([1]; 40 μM, 6 days, >2-fold, p<0.05): 69 genes
log2 Fold change ([1]; gene MT0169 Rv0160c PE): −1.408
log2 Fold change ([1]; gene MT0258 Rv0244c fadE5): −1.069
log2 Fold change ([1]; gene MT0273 Rv0260c): −1.854
Counts per million (CPM) ([1]; gene MT0292 Rv0280 PPE): 31.79 CPM and 16.54 CPM
log2 Fold change ([1]; gene MT0292 Rv0280 PPE): −1.247
Counts per million (CPM) ([1]; gene MT0329 Rv0315): 113.2 CPM and 189.1 CPM
log2 Fold change ([1]; gene MT0329 Rv0315): −1.246
Counts per million (CPM) ([1]; gene MT0456 Rv0440 groEL2): 5,842.91 CPM and 4,666.11 CPM
log2 Fold change ([1]; gene MT0456 Rv0440 groEL2): −1.245
Counts per million (CPM) ([1]; gene MT0483 Rv0467 aceA): 884.5 CPM and 561.1 CPM
log2 Fold change ([1]; gene MT0483 Rv0467 aceA): −1.499
Counts per million (CPM) ([1]; gene MT0484): 179.4 CPM and 142.8 CPM
log2 Fold change ([1]; gene MT0484): −1.278
Counts per million (CPM) ([1]; gene MT0493 Rv0475): 790.8 CPM and 938.1 CPM
log2 Fold change ([1]; gene MT0493 Rv0475): −1.077
log2 Fold change ([1]; gene MT0532 Rv0511 cysG): 1.218
log2 Fold change ([1]; gene MT0533 Rv0512 hemB): 1.276
log2 Fold change ([1]; gene MT0583 Rv0557): 1.113
log2 Fold change ([1]; gene MT0586 Rv0560c): 1.95
log2 Fold change ([1]; gene MT0658 Rv0630c recB): 1.021
log2 Fold change ([1]; gene MT0705 Rv0676c mmpL5): 1.881
log2 Fold change ([1]; gene MT0706 Rv0677c mmpS5): 1.662
log2 Fold change ([1]; gene MT0706.1 Rv0678): 1.572
log2 Fold change ([1]; gene MT0772.5 Rv0747 PE_PGRS): 1.043
log2 Fold change ([1]; gene MT0808 Rv0784): 2.116
Counts per million (CPM) ([1]; gene MT0901 Rv0878c PPE): 18.57 CPM and 12.14 CPM
log2 Fold change ([1]; gene MT0901 Rv0878c PPE): −1.047
Counts per million (CPM) ([1]; gene MT0908 Rv0885): 437.9 CPM and 441.4 CPM
log2 Fold change ([1]; gene MT0908 Rv0885): −3.4
Counts per million (CPM) ([1]; gene MT0909 Rv0886 fprB): 103.6 CPM and 55.4 CPM
log2 Fold change ([1]; gene MT0909 Rv0886 fprB): −3.149
Counts per million (CPM) ([1]; gene MT0911 Rv0888): 9.416 CPM and 8.907 CPM
log2 Fold change ([1]; gene MT0911 Rv0888): −1.599
Counts per million (CPM) ([1]; gene MT0915.1): 9.867 CPM and 9.495 CPM
log2 Fold change ([1]; gene MT0915.1): −1.202
log2 Fold change ([1]; gene MT0956 Rv0929 pstC2): 1.037
Counts per million (CPM) ([1]; gene MT1019 Rv0990c): 62.69 CPM and 83.49 CPM
log2 Fold change ([1]; gene MT1019 Rv0990c): −1.236
Counts per million (CPM) ([1]; gene MT1020): 529.4 CPM and 1,032.48 CPM
log2 Fold change ([1]; gene MT1020): −1.261
log2 Fold change ([1]; gene MT1073 Rv1043c): 1.069
log2 Fold change ([1]; gene MT1123 Rv1091 PE_PGRS): 1.015
Counts per million (CPM) ([1]; gene MT1224 Rv1187 rocA): 50.05 CPM and 29.85 CPM
log2 Fold change ([1]; gene MT1224 Rv1187 rocA): −1.028
Counts per million (CPM) ([1]; gene MT1233 Rv1195 PE): 282.5 CPM and 86.53 CPM
log2 Fold change ([1]; gene MT1233 Rv1195 PE): −1.537
log2 Fold change ([1]; gene MT1296 Rv1257c): 1.198
log2 Fold change ([1]; gene MT1297 Rv1258c): 1.744
log2 Fold change ([1]; gene MT1303 Rv1265): 1.132
Counts per million (CPM) ([1]; gene MT1385): 26.31 CPM and 28.68 CPM
log2 Fold change ([1]; gene MT1385): −1.733
log2 Fold change ([1]; gene MT1424 Rv1380 pyrB): 1.245
log2 Fold change ([1]; gene MT1425 Rv1381 pyrC): 1.176
log2 Fold change ([1]; gene MT1426): 1.289
log2 Fold change ([1]; gene MT1427 Rv1383 car A): 1.005
log2 Fold change ([1]; gene MT1428 Rv1384 carB): 1.115
log2 Fold change ([1]; gene MT1429 Rv1385 pyrF): 1.522
Counts per million (CPM) ([1]; gene MT1430 Rv1386 PE): 77.39 CPM and 47.87 CPM
log2 Fold change ([1]; gene MT1430 Rv1386 PE): −1.005
Counts per million (CPM) ([1]; gene MT1431 Rv1387 PPE): 317.7 CPM and 543.6 CPM
log2 Fold change ([1]; gene MT1431 Rv1387 PPE): −1.201
Counts per million (CPM) ([1]; gene MT1484 Rv1439c): 6.965 CPM and 6.852 CPM
log2 Fold change ([1]; gene MT1484 Rv1439c): −1.508
Counts per million (CPM) ([1]; gene MT1585.1): 293.5 CPM and 393.7 CPM
log2 Fold change ([1]; gene MT1585.1): −2.24
Counts per million (CPM) ([1]; gene MT1586 Rv535 Rv1535): 44.69 CPM and 38.96 CPM
log2 Fold change ([1]; gene MT1586 Rv535 Rv1535): −1.971
log2 Fold change ([1]; gene MT1620 Rv1569 bioF): 1.182
Counts per million (CPM) ([1]; gene MT1627): 22.44 CPM and 21.44 CPM
log2 Fold change ([1]; gene MT1627): −1.25
Counts per million (CPM) ([1]; gene MT1628 Rv1592c): 334.3 CPM and 332.3 CPM
log2 Fold change ([1]; gene MT1628 Rv1592c): −1.21
Counts per million (CPM) ([1]; gene MT1736): 181.3 CPM and 300.2 CPM
log2 Fold change ([1]; gene MT1736): −1.039
Counts per million (CPM) ([1]; gene MT1775): 17.8 CPM and 12.82 CPM
log2 Fold change ([1]; gene MT1775): −1.012
log2 Fold change ([1]; gene MT1836 Rv1787 PPE): 1.847
Counts per million (CPM) ([1]; gene MT1854 Rv1804c): 12.83 CPM and 20.46 CPM
log2 Fold change ([1]; gene MT1854 Rv1804c): −1.101
log2 Fold change ([1]; gene MT1893 Rv1845c): 1.059
Counts per million (CPM) ([1]; gene MT1922 Rv1873): 11.35 CPM and 17.72 CPM
log2 Fold change ([1]; gene MT1922 Rv1873): −1.314
Counts per million (CPM) ([1]; gene MT1969 Rv1918c PPE): 90.23 CPM and 98.57 CPM
log2 Fold change ([1]; gene MT1969 Rv1918c PPE): −1.009
Counts per million (CPM) ([1]; gene MT2040 Rv1986): 79.07 CPM and 31.42 CPM
log2 Fold change ([1]; gene MT2040 Rv1986): −2.384
log2 Fold change ([1]; gene MT2126 Rv2066 cobl): 1.049
Counts per million (CPM) ([1]; gene MT2166 Rv2107 PE): 25.86 CPM and 35.24 CPM
log2 Fold change ([1]; gene MT2166 Rv2107 PE): −1.899
Counts per million (CPM) ([1]; gene MT2167 Rv2108 PPE): 31.6 CPM and 38.76 CPM
log2 Fold change ([1]; gene MT2167 Rv2108 PPE): −1.672
Counts per million (CPM) ([1]; gene MT2168): 9.545 CPM and 9.201 CPM
log2 Fold change ([1]; gene MT2168): −1.358
log2 Fold change ([1]; gene MT2264 Rv2208 cobS): 1.264
Counts per million (CPM) ([1]; gene MT2278 Rv2220 glnA1): 635.9 CPM and 701.1 CPM
log2 Fold change ([1]; gene MT2278 Rv2220 glnA1): −1.188
Counts per million (CPM) ([1]; gene MT2284 Rv2225 panB): 197.5 CPM and 213.5 CPM
log2 Fold change ([1]; gene MT2284 Rv2225 panB): −1.005
Counts per million (CPM) ([1]; gene MT2304 Rv2244 acpM): 831.8 CPM and 1,835.61 CPM
log2 Fold change ([1]; gene MT2304 Rv2244 acpM): −1.454
Counts per million (CPM) ([1]; gene MT2305 Rv2245 kasA): 1,175.19 CPM and 2,060.94 CPM
log2 Fold change ([1]; gene MT2305 Rv2245 kasA): −1.196
Counts per million (CPM) ([1]; gene MT2306): 704.1 CPM and 1,234.02 CPM
log2 Fold change ([1]; gene MT2306): −1.017
Counts per million (CPM) ([1]; gene MT2391 Rv2329c narK1): 72.04 CPM and 74 CPM
log2 Fold change ([1]; gene MT2391 Rv2329c narK1): −1.058
Counts per million (CPM) ([1]; gene MT2417): 8.836 CPM and 16.05 CPM
log2 Fold change ([1]; gene MT2417): −1.114
Counts per million (CPM) ([1]; gene MT2503 Rv2428 ahpC): 372.7 CPM and 897.9 CPM
log2 Fold change ([1]; gene MT2503 Rv2428 ahpC): −1.173
Counts per million (CPM) ([1]; gene MT2504 Rv2429 ahpD): 163.9 CPM and 315.8 CPM
Counts per million (CPM) ([1]; gene MT2506): 236.2 CPM and 203 CPM
log2 Fold change ([1]; gene MT2506): −1.06
Counts per million (CPM) ([1]; gene MT2526 Rv2450c): 892.4 CPM and 239.7 CPM
log2 Fold change ([1]; gene MT2526 Rv2450c): −1.032
log2 Fold change ([1]; gene MT2615 Rv2540c aroF): 1.402
log2 Fold change ([1]; gene MT2631): 1.063
Counts per million (CPM) ([1]; gene MT2698 Rv2623): 41.08 CPM and 44.83 CPM
log2 Fold change ([1]; gene MT2698 Rv2623): −1.072
Counts per million (CPM) ([1]; gene MT2778 Rv2705c): 45.21 CPM and 56.67 CPM
log2 Fold change ([1]; gene MT2778 Rv2705c): −1.01
Counts per million (CPM) ([1]; gene MT2849 Rv2779c): 26.89 CPM and 12.92 CPM
log2 Fold change ([1]; gene MT2849 Rv2779c): −1.668
Counts per million (CPM) ([1]; gene MT2850 Rv2780 ald): 1,263.03 CPM and 369.1 CPM
log2 Fold change ([1]; gene MT2850 Rv2780 ald): −1.861
log2 Fold change ([1]; gene MT2863 Rv2794c): 1.021
Counts per million (CPM) ([1]; gene MT3065 Rv2987c leuD): 140.2 CPM and 20.16 CPM
log2 Fold change ([1]; gene MT3065 Rv2987c leuD): −1.094
log2 Fold change ([1]; gene MT3110 Rv3026c): 1.612
Counts per million (CPM) ([1]; gene MT3118 Rv3033): 22.06 CPM and 33.57 CPM
Counts per million (CPM) ([1]; gene MT3132): 35.54 CPM and 21.04 CPM
log2 Fold change ([1]; gene MT3132): −1.912
log2 Fold change ([1]; gene MT3133 Rv3048c nrdG): −2.008
log2 Fold change ([1]; gene MT3134 Rv3049c): −2.181
log2 Fold change ([1]; gene MT3178 Rv3094c): −1.319
log2 Fold change ([1]; gene MT3293 Rv3199c): 1.039
log2 Fold change ([1]; gene MT3327 Rv3230c): 1.145
log2 Fold change ([1]; gene MT3441 Rv3338): −1.641
log2 Fold change ([1]; gene MT3481 Rv3371): −1.101
log2 Fold change ([1]; gene MT3498 Rv3391 acrA1): −1.036
log2 Fold change ([1]; gene MT3581 Rv3477 PE): −1.558
log2 Fold change ([1]; gene MT3591 Rv3487c lipF): −1.301
log2 Fold change ([1]; gene MT3947 Rv3839): −1.144
log2 Fold change ([1]; gene MT3963 Rv3848): −1.017
log2 Fold change ([1]; gene MT3969 Rv3854c): −2.018
log2 Fold change ([1]; gene MT3970 Rv3855): −1.5
log2 Fold change ([1]; gene MT3976 Rv3862c): −1.387
log2 Fold change ([1]; gene MT3978 Rv3864): −1.324
log2 Fold change ([1]; gene MT3988 Rv3874): −1.066
log2 Fold change ([1]; gene MT3989 Rv3875 esat6): −1.043
genes inhibited that are not modulated in the CDC1551(ΔdosR) mutant [2]: 157 genes
genes downregulated by compound that are also downregulated in the CDC1551(ΔdosR) mutant ([2]; >2-fold, p<0.05): 85 genes
response of DosT (G115L) protein to artemisinin [3]: exhibits artemisinin resistance
oxidation of DosS (E87L) and DosS (G117L) proteins by artemisinin [4]: resistant to oxidation
resistance to artemisinin of DosT (G115L) vs WT DosT or DosT (G85L) [5]: ~5 fold
